From patent US8722849B2, “Polypeptides” (Novo Nordisk A/S, priority 2011, dated 2014) come the findings set out here.

In data set [1] the target is T1, human amylin receptor (amylin 3(a) receptor: human calcitonin receptor + RAMP-3) (Homo sapiens, UniProt O60896+P30988).
T1 construct: expressed in transfected cells; host or cells: BHK570
T1 sequence (P30988 25-474): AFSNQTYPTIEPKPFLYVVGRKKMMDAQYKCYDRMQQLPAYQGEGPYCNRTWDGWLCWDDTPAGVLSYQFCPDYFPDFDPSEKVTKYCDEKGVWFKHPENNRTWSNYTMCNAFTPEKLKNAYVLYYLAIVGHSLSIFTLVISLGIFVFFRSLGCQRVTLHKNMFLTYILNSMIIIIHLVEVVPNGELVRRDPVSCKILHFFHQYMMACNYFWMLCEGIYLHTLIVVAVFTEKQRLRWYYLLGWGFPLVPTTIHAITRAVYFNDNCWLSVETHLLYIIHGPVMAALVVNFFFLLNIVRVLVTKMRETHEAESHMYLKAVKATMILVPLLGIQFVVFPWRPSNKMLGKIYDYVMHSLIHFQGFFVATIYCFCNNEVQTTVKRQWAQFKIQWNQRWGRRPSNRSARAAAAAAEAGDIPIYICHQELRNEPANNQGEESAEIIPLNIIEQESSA
T1 sequence (O60896 24-148 partner): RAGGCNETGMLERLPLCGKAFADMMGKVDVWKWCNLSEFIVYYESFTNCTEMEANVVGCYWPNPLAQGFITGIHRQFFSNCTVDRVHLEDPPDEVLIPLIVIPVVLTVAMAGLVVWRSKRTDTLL
The experiment in a line: Assay (II)a functional CRE-luciferase assay, human amylin receptor. It counts as cell-based. The settings on record: Table 2; BHK amylin 3(a)-receptor/CRE-luc cells.

Data set [2] addresses T2, rat amylin 3(a) receptor (rat calcitonin(a) receptor + rat RAMP3) (Rattus norvegicus, UniProt P32214+Q9JJ73).
T2 construct: expressed in transfected cells; host or cells: BHK tk'ts 13
T2 sequence (P32214 25-479 isoform P32214-2 limits assumed): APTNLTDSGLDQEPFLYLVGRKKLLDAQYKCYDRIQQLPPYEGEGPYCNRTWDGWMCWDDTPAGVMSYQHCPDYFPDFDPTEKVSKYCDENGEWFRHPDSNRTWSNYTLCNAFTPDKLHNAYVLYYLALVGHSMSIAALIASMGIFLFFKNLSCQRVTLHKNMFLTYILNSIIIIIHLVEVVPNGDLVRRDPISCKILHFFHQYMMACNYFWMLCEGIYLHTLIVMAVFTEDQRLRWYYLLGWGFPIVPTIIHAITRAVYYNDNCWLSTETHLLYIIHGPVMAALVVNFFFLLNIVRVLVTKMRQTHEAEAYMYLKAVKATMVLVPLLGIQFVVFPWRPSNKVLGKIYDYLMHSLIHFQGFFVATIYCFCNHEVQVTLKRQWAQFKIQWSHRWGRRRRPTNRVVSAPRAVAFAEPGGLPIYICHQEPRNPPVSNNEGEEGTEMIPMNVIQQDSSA
T2 sequence (Q9JJ73 23-147 partner): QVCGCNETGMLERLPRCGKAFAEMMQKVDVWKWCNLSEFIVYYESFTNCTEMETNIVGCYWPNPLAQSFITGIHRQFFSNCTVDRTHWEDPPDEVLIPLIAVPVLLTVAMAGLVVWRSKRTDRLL
The experiment in a line: Assay (II)b functional cAMP FlashPlate assay, rat amylin receptor. It counts as cell-based. The settings on record: Table 11. In short, it runs like this: (§1)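 BHK tk'ts 13 cells transiently transfected with rat calcitonin(a) receptor, alone or with rat RAMP3 (amylin 3(a)), were stimulated 24 hours later with sample for 30 min in buffer containing IBMX. cAMP measured by competitive radioactive FlashPlate assay, scintillation read after 3 h detection incubation.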

Data set [3] in a line: Assay (IV) determination of solubility. The data set is classed as physicochemical. Put shortly: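 Polypeptide in water (~500 nmol/ml stock) was mixed 1:1 with 100 mM buffers from pH 3.0 to 8.0 (glycylglycine pH 3.0–5.0; bistrispropane pH 6.0–8.0). After 18 hours at room temperature, samples were centrifuged and the polypeptide remaining in solution was quantified by HPLC.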

For data set [4], the target named is T3, rat calcitonin (a) receptor (Rattus norvegicus, UniProt P32214).
T3 construct: expressed in transfected cells; host or cells: BHK tk'ts 13
T3 sequence (P32214 25-479 isoform P32214-2 limits assumed): T2 sequence (P32214 25-479 isoform P32214-2 limits assumed)
Description: Assay (II)b functional cAMP FlashPlate assay, rat calcitonin receptor. The data set is classed as cell-based. Particulars: Table 11; read-out: CTa receptor rat EC50. In short, it runs like this: as §1

In data set [5] the target is T4, human calcitonin receptor (Homo sapiens, UniProt P30988).
T4 construct: expressed in transfected cells; host or cells: BHK570
T4 sequence (P30988 25-474): T1 sequence (P30988 25-474)
The experiment in a line: Assay (II)a functional CRE-luciferase assay, human calcitonin receptor. It counts as cell-based. The settings on record: Table 7; human calcitonin (CTa) receptor.

Where [6] appears, read: bistrispropane buffer, pH 6, pH 6.0, read-out: Solubility pH 6.0.
Setting [7] is: bistrispropane buffer, pH 6.5, pH 6.5, read-out: Solubility pH 6.5.
Setting [8] is: bistrispropane buffer, pH 7, pH 7.0, 18 hours at room temperature, Table 3, read-out: Solubility pH 7.0.
Where [9] appears, read: bistrispropane buffer, pH 7, pH 7.0, Table 8, read-out: Solubility pH 7.0.
[10] abbreviates: bistrispropane buffer, pH 7, pH 7.0, read-out: Solubility pH 7.0.
Setting [11] is: bistrispropane buffer, pH 7.5, pH 7.5, read-out: Solubility pH 7.5.
The mark [12] stands for this setting: bistrispropane buffer, pH 8, pH 8.0, read-out: Solubility pH 8.0.
[13] abbreviates: glycylglycine buffer, pH 3, pH 3.0, read-out: Solubility pH 3.0.
Setting [14] is: glycylglycine buffer, pH 4, pH 4.0, 18 hours at room temperature, Table 2, read-out: Solubility pH 4.0.
[15] abbreviates: glycylglycine buffer, pH 4, pH 4.0, read-out: Solubility pH 4.0.
Where [16] appears, read: glycylglycine buffer, pH 5, pH 5.0, read-out: Solubility pH 5.0.

Converted amounts (≈) assume the structure as drawn. Like-named read-outs stand apart in the source and are kept apart here. Starred links: 1 amine or outer side, 2 acyl side, 3 side chain; linkers in the order of their positions; H or OH if unused. Positions of bridges follow the written chain, without caps; N, C: chain ends. Residues, ends and D or L forms follow the SMILES beside them. *: point of attachment. C18 diacid = O=C(O)CCCCCCCCCCCCCCCCC(=O)*; γGlu = O=C(O)[C@H](CCC(=O)[*:2])N[*:1] Where only a bound is given, the exact number is not on record here.

In the case of `CC[C@H](C)[C@H](NC(=O)[C@@H]1CCCN1C(=O)CNC(=O)[C@H](Cc1ccccc1)NC(=O)[C@H](CC(N)=O)NC(=O)[C@H](CC(N)=O)NC(=O)[C@H](CO)NC(=O)[C@H](CO)NC(=O)[C@H](Cc1c[nH]cn1)NC(=O)[C@H](Cc1c[nH]cn1)NC(=O)[C@H](CC(C)C)NC(=O)[C@H](Cc1ccccc1)NC(=O)[C@H](CCC(=O)O)NC(=O)[C@H](C)NC(=O)[C@H](CC(C)C)NC(=O)[C@H](CCCNC(=N)N)NC(=O)[C@H](CCC(N)=O)NC(=O)[C@@H](NC(=O)[C@H](C)NC(=O)[C@@H]1CSSC[C@H](NC(=O)[C@H](CCCCN)NC(=O)CC[C@H](NC(=O)CCCCCCCCCCCCCCCCC(=O)O)C(=O)O)C(=O)N[C@@H](CC(N)=O)C(=O)N[C@@H]([C@@H](C)O)C(=O)N[C@@H](C)C(=O)N[C@@H]([C@@H](C)O)C(=O)N1)[C@@H](C)O)C(=O)N[C@@H](CC(C)C)C(=O)N1CCC[C@H]1C(=O)N1CCC[C@H]1C(=O)N[C@H](C(=O)N[C@@H](CC(N)=O)C(=O)N[C@H](C(=O)NCC(=O)N[C@@H](CO)C(=O)N[C@@H](Cc1c[nH]cn1)C(=O)N[C@H](C(=O)N[C@@H](Cc1ccc(O)cc1)C(N)=O)[C@@H](C)O)C(C)C)[C@@H](C)O` [Example 59, N-alpha-[(S)-4-Carboxy-4-(17-carboxyheptadecanoylamino)butyryl]-[Glu14,His17,His35]-pramlintide] ({C18 diacid-γGlu}-KCNTATCATQRLAEFLHHSSNNFGPILPPTNVGSHTY-NH2; disulfide 2-7 (inferred)), the EC50 (commonly the concentration that produces a half-maximal response) was 56 pM in data set [1], 23 pM in data set [2], 148 pM in data set [4] and 60.5 pM in data set [5]. Further, the solubility (usually the concentration that dissolves in the medium under given conditions) at 18 h in data set [3] (setting [6]) was greater than 200 µM; in data set [3] (setting [7]), greater than 200 µM; in data set [3] (setting [8]), greater than 200 µM; in data set [3] (setting [9]), greater than 200 µM; in data set [3] (bistrispropane buffer, pH 7, pH 7.0, Table 9, read-out: Solubility pH 7.0) it was greater than 200 µM; in data set [3] (setting [10]), greater than 200 µM. For the same compound, the solubility at 18 h in data set [3] (bistrispropane buffer, pH 7.5, pH 7.5, Table 9, read-out: Solubility pH 7.5) is greater than 200 µM; in data set [3] (setting [11]), greater than 200 µM; in data set [3] (setting [12]) it was greater than 200 µM; in data set [3] (setting [13]), greater than 200 µM; in data set [3] (setting [14]), greater than 200 µM; in data set [3] (setting [15]), greater than 200 µM. Further, the solubility at 18 h in data set [3] (setting [16]) is greater than 200 µM.

For the compound `CC[C@H](C)[C@H](NC(=O)[C@@H]1CCCN1C(=O)CNC(=O)[C@H](Cc1ccccc1)NC(=O)[C@H](CC(N)=O)NC(=O)[C@H](CC(N)=O)NC(=O)[C@H](CO)NC(=O)[C@H](CO)NC(=O)[C@H](Cc1c[nH]cn1)NC(=O)[C@H](CCCNC(=N)N)NC(=O)[C@H](CC(C)C)NC(=O)[C@H](Cc1ccccc1)NC(=O)[C@H](CCC(=O)O)NC(=O)[C@H](C)NC(=O)[C@H](CC(C)C)NC(=O)[C@H](CCCNC(=N)N)NC(=O)[C@H](CCC(N)=O)NC(=O)[C@@H](NC(=O)[C@H](C)NC(=O)[C@@H]1CSSC[C@H](NC(=O)[C@H](CCCCN)NC(=O)CC[C@H](NC(=O)CCCCCCCCCCCCCCCCC(=O)O)C(=O)O)C(=O)N[C@@H](CC(N)=O)C(=O)N[C@@H]([C@@H](C)O)C(=O)N[C@@H](C)C(=O)N[C@@H]([C@@H](C)O)C(=O)N1)[C@@H](C)O)C(=O)N[C@@H](CC(C)C)C(=O)N1CCC[C@H]1C(=O)N1CCC[C@H]1C(=O)N[C@H](C(=O)N[C@@H](CC(N)=O)C(=O)N[C@H](C(=O)NCC(=O)N[C@@H](CO)C(=O)N[C@@H](Cc1c[nH]cn1)C(=O)N[C@H](C(=O)N[C@@H](Cc1ccc(O)cc1)C(N)=O)[C@@H](C)O)C(C)C)[C@@H](C)O` [Example 61, N-alpha-[(S)-4-Carboxy-4-(17-carboxyheptadecanoylamino)butyryl]-[Glu14,Arg17,His35]-pramlintide] ({C18 diacid-γGlu}-KCNTATCATQRLAEFLRHSSNNFGPILPPTNVGSHTY-NH2; disulfide 2-7 (inferred)), the EC50 turned out to be 67.5 pM in data set [1], 38 pM in data set [2], 2360 pM in data set [4] and 334 pM in data set [5]. Further, the solubility at 18 h in data set [3] (setting [6]) was greater than 200 µM; in data set [3] (setting [7]), greater than 200 µM; in data set [3] (setting [10]), 81 µM (≈ 362 µg/mL); in data set [3] (setting [11]), 50 µM (≈ 224 µg/mL); in data set [3] (setting [12]) it was 48 µM (≈ 215 µg/mL); in data set [3] (setting [13]) it was greater than 200 µM. The solubility at 18 h in data set [3] (setting [14]), in data set [3] (setting [15]) and in data set [3] (setting [16]) was greater than 200 µM in each case.

Take `CC[C@H](C)[C@H](NC(=O)[C@@H]1CCCN1C(=O)CNC(=O)[C@H](Cc1ccccc1)NC(=O)[C@H](CC(N)=O)NC(=O)[C@H](CC(N)=O)NC(=O)[C@H](CO)NC(=O)[C@H](CO)NC(=O)[C@H](Cc1c[nH]cn1)NC(=O)[C@H](CCCNC(=N)N)NC(=O)[C@H](CC(C)C)NC(=O)[C@H](Cc1ccccc1)NC(=O)[C@H](CCC(=O)O)NC(=O)[C@H](C)NC(=O)[C@H](CC(C)C)NC(=O)[C@H](CCCNC(=N)N)NC(=O)[C@H](CCC(N)=O)NC(=O)[C@@H](NC(=O)[C@H](C)NC(=O)[C@@H]1CSSC[C@H](NC(=O)[C@H](CCCCN)NC(=O)[C@H](CCC(=O)O)NC(=O)CC[C@H](NC(=O)CCCCCCCCCCCCCCCCC(=O)O)C(=O)O)C(=O)N[C@@H](CC(N)=O)C(=O)N[C@@H]([C@@H](C)O)C(=O)N[C@@H](C)C(=O)N[C@@H]([C@@H](C)O)C(=O)N1)[C@@H](C)O)C(=O)N[C@@H](CC(C)C)C(=O)N1CCC[C@H]1C(=O)N1CCC[C@H]1C(=O)N[C@H](C(=O)N[C@@H](CC(N)=O)C(=O)N[C@H](C(=O)NCC(=O)N[C@@H](CO)C(=O)N[C@@H](Cc1c[nH]cn1)C(=O)N[C@H](C(=O)N[C@@H](Cc1ccc(O)cc1)C(N)=O)[C@@H](C)O)C(C)C)[C@@H](C)O` [Example 62, N-alpha-[(S)-4-Carboxy-4-(17-carboxyheptadecanoylamino)butyryl]-Glu-[Glu14,Arg17,His35]-pramlintide] ({C18 diacid-γGlu}-EKCNTATCATQRLAEFLRHSSNNFGPILPPTNVGSHTY-NH2; disulfide 3-8 (inferred); C-terminus assumed): the EC50 is 172 pM in data set [1], 281 pM in data set [2], 17600 pM in data set [4] and 1070 pM in data set [5]. Further, the solubility at 18 h in data set [3] (setting [6]), in data set [3] (setting [7]), in data set [3] (setting [8]), in data set [3] (setting [9]), in data set [3] (setting [10]) and in data set [3] (setting [11]) was greater than 200 µM throughout. Also, the solubility at 18 h in data set [3] (setting [12]), in data set [3] (setting [13]), in data set [3] (setting [14]), in data set [3] (setting [15]) and in data set [3] (setting [16]) was greater than 200 µM each time.
